{"source": "patent US7960560B2", "about": "“1-(biphenyl-4-ylmethyl)imidazolidine-2,4-dione” (N.V. Organon, priority 2008, dated 2011)", "key": {"[1]": {"test_system": "mechanical allodynia induced by spinal nerve ligation in rats", "experiment": "The rat (Chung) model of neuropathic pain", "assay_type": "in vivo", "conditions": "for Withdrawal threshold (g) at peak effect: male Wistar rats, von Frey, vehicle 2.7 ± 0.2", "method": "The Rat (Chung) Model of Neuropathic Pain\nIn this model, mechanical allodynia is induced by tight ligation of the left L5 spinal nerve.\nMale Wistar rats (228-301 g body weight at time of surgery) were employed in the study. Rats were placed on an elevated (˜40 cm) mesh floor in perspex boxes and the rats' withdrawal threshold to a mechanical stimulus (calibrated von Frey filaments) was measured using filaments of increasing force (2.6-167 mN). The von Frey filaments were applied to the plantar surface of the paw and threshold response determined using the up and down method. A positive response was noted if the paw was sharply withdrawn. A cut-off of 15 g was selected as the upper limit for testing. Following baseline measurements each animal was anaesthetised and the L5 spinal nerve tightly ligated. The animals were allowed to recover from the surgery for a period of at least three days. On the day of drug administration the paw withdrawal thresholds were re-measured (0 min). Immediately after this reading, the rats were dosed orally with vehicle or test compound and readings measured at various time points after compound administration.\nData were expressed as mean±s.e.m. Statistical analysis was performed using the Kruskal-Wallis one-way analysis of variance, a non-parametric statistical test. Each of the treatment groups were then compared against the vehicle group, using the non-parametric Dunn's test."}, "[2]": {"test_system": "mechanical hyperalgesia induced by complete Freund's adjuvant in rats", "experiment": "Mechanical hyperalgesia in the rat (CFA model of inflammatory pain)", "assay_type": "in vivo", "conditions": "for % Attenuation of hyperalgesia (peak effect): male Wistar rats, 24 h after CFA, reading 3 h post drug, vehicle −0.6 ± 11", "method": "Mechanical Hyperalgesia in the Rat\nIn this rat model of inflammatory pain, inflammation is induced by subcutaneous injection of complete Freund's adjuvant (CFA) into the hind paw. The associated mechanical hyperalgesia is quantified by measuring the reduction in paw withdrawal threshold (PWT) to a mechanical compression of the paw.\nExperiments were in male Wistar rats weighing (141-175 g). In brief, the rats' paw withdrawal threshold (PWT) to a mechanical compression of the hind paw was measured (baseline reading) using a Randall-Sellito apparatus (Ugo Basile). A cut-off of 20 g was employed to minimise tissue damage to the paw. The animals were then lightly anaesthetised with isoflurane (1-3%) and CFA (0.1 ml.paw^−1) injected subcutaneously (s.c.) into the plantar surface of the left hind paw. The animals were then returned to their home cage and left for the inflammation to develop.\nTwenty four h after CFA injection, PWT's were re-measured (0 min) and immediately after this reading, rats were dosed orally with either vehicle or compound 3K (4.5-45 μmol/kg p.o.) Readings were then made at 3 h post drug administration.\nData were plotted as mean±s.e.m. and compared between groups using the Kruskal-Wallis one-way analysis of variance, a non-parametric statistical test.\nThe percent attenuation of mechanical hyperalgesia is calculated as follows."}}}
{"smiles": "O=C1CN(Cc2ccc(-c3ccccc3CN3CCOCC3)cc2)C(=O)N1CC1CC1", "note": "[Example 3K, 3-Cyclopropylmethyl-1-(2′-(morpholin-4-ylmethyl)biphenyl-4-ylmethyl)imidazolidine-2,4-dione]", "values": [{"measurement": "Withdrawal threshold (g) at peak effect", "setting": "[1]; 4.5 μmol/kg p.o.", "value": "5.8 ± 1.1", "unit": "g"}, {"measurement": "Withdrawal threshold (g) at peak effect", "setting": "[1]; 15 μmol/kg p.o., p ≦ 0.05", "value": "6.4 ± 1.0", "unit": "g"}, {"measurement": "Withdrawal threshold (g) at peak effect", "setting": "[1]; 45 μmol/kg p.o., p ≦ 0.05", "value": "7.4 ± 1.3", "unit": "g"}, {"measurement": "Effect on mechanical allodynia", "setting": "[1]; 4.5-45 μmol/kg p.o., at 120 and 180 min post drug administration", "value": "attenuated mechanical allodynia in a dose-dependent fashion"}, {"measurement": "Minimum effective dose (MED)", "setting": "[1]; p.o., mechanical allodynia, rat", "value": 15, "unit": "µmol/kg"}, {"measurement": "% Attenuation of hyperalgesia (peak effect)", "setting": "[2]; 4.5 μmol/kg p.o.", "value": "36 ± 11", "unit": "%"}, {"measurement": "% Attenuation of hyperalgesia (peak effect)", "setting": "[2]; 45 μmol/kg p.o., p ≦ 0.001", "value": "100 ± 25", "unit": "%"}, {"measurement": "Effect on mechanical hyperalgesia induced by CFA", "setting": "[2]; 4.5-45 μmol/kg oral", "value": "reversed mechanical hyperalgesia induced by CFA in a dose-dependent fashion"}, {"measurement": "MED", "setting": "[2]; p.o., CFA-induced mechanical hyperalgesia, rat", "value": 4.4, "unit": "µmol/kg"}]}
